For series [1], the system named is Enterococcus faecalis. Put plainly: MIC, micro-dilution broth method (CLSI). The settings on record: Enterococcus faecalis KLE 2341, BHI-ych; read-out: MIC. It counts as cell-based.
Series [2] deals with Bacteroides fragilis. Nature of the series: MIC, gut commensal bacteria, micro-dilution broth. To be noted: Bacteroides fragilis, ATCC25285.
Series [3] deals with Bacteroides vulgatus. Nature of the series: MIC, gut commensal bacteria, micro-dilution broth. The settings on record: Phocaeicola vulgatus.
Series [4] concerns Bacteroides cellulosilyticus. Put plainly: MIC, gut commensal bacteria, micro-dilution broth. The settings on record: Bacteroides cellulosilyticus.
Series [5] has as its system Stenotrophomonas maltophilia. Put plainly: MIC, gut commensal bacteria, micro-dilution broth. The settings on record: Stenotrophomonas maltophilia, ATCC13637.
Series [6] relates to Faecalibacterium prausnitzii. Nature of the series: MIC, gut commensal bacteria, micro-dilution broth. To be noted: Faecalibacterium prausnitzii, ATCC27768.
The test system of series [7] is Morganella morganii. Put plainly: MIC, gut commensal bacteria, micro-dilution broth. The settings on record: ATCC25839.
The test system of series [8] is Proteus mirabilis. Nature of the series: MIC, gut commensal bacteria, micro-dilution broth. To be noted: Proteus mirabilis, ATCC35659.
Series [9] has as its system Streptococcus salivarius. Put plainly: MIC, gut commensal bacteria, micro-dilution broth. The settings on record: Streptococcus salivarius.
Series [10] has as its system Streptococcus parasanguinis. Put plainly: MIC, gut commensal bacteria, micro-dilution broth. The settings on record: Streptococcus parasanguinis.
The test system of series [11] is Bifidobacterium longum. Nature of the series: MIC, gut commensal bacteria, micro-dilution broth. The settings on record: Bifidobacterium longum, ATCCBAA999.
In series [12] the test system is Lactobacillus reuteri. Nature of the series: MIC, gut commensal bacteria, micro-dilution broth. To be noted: Limosilactobacillus reuteri, ATCC23272.
Series [13] concerns Blautia producta. Nature of the series: MIC, gut commensal bacteria, micro-dilution broth. The settings on record: Blautia producta, ATCC27340.
Series [14] relates to gut microbiome. Put plainly: Impact on murine fecal microbiome (16S rRNA sequencing). To be noted: oral gavage twice a day for three days; feces at days 0, 7, 10, 31.

In brackets after ≈: the same amount, converted by molar mass.

On to `CC1(C)S[C@@H]2[C@H](NC(=O)[C@H](N)c3ccc(O)cc3)C(=O)N2[C@H]1C(=O)O` [Amoxicillin], for which the MIC in series [1] is 0.25 µg/mL (≈ 0.684 µM); in [2] it was 128 µg/mL (≈ 350 µM); in series [3], 2 µg/mL (≈ 5.47 µM); in series [4] it was above 128 µg/mL; in series [5] it was above 128 µg/mL; in series [6] it was 64 µg/mL (≈ 175 µM). Besides, the MIC in [7] worked out at 32 µg/mL (≈ 87.6 µM); in series [8] it was 0.008 µg/mL (≈ 0.0219 µM); in series [9], 0.125 µg/mL (≈ 0.342 µM); in series [10], 64 µg/mL (≈ 175 µM); in series [11] it was 1 µg/mL (≈ 2.74 µM); in series [12], 1 µg/mL (≈ 2.74 µM). In series [13], this compound gave an MIC of 1 µg/mL (≈ 2.74 µM). The “effect on gut microbiome taxonomic composition” value in series [14] was “increases in members of Bacteroidia”.
For `CCC[C@@H]1C[C@@H](C(=O)N[C@@H]([C@H]2O[C@H](SC)[C@H](O)[C@@H](O)[C@H]2O)[C@H](C)Cl)N(C)C1` [Clindamycin], the MIC in [1] was 1 µg/mL (≈ 2.35 µM); in series [2], 4 µg/mL (≈ 9.41 µM); in [3] it was 16 µg/mL (≈ 37.6 µM); in series [4] it was above 128 µg/mL; in series [5], 0.5 µg/mL (≈ 1.18 µM); in series [6] it was 0.25 µg/mL (≈ 0.588 µM). The MIC in series [7] is above 128 µg/mL; in series [8], 0.125 µg/mL (≈ 0.294 µM); in series [9], 2 µg/mL (≈ 4.71 µM); in series [10] it was 0.06 µg/mL (≈ 0.141 µM); in [11], 0.5 µg/mL (≈ 1.18 µM); in [12], 0.25 µg/mL (≈ 0.588 µM). In addition, inhibition of growth in series [13] (MIC) required 1 µg/mL (≈ 2.35 µM). Moreover, the “effect on gut microbiome taxonomic composition” value in [14] was “large decreases in the members of Bacilli and Bacteroidia”.

The values are drawn from patent US20250051300A1, “GRAM-NEGATIVE SPECIFIC ANTIBIOTICS SPARING EFFECT ON GUT MICROBIOME” (THE BOARD OF TRUSTEES OF THE UNIVERSITY OF ILLINOIS, priority 2021, published 2025).
